From US20230293517A1, “ANTAGONIST COMPOUNDS” (AdoRx Therapeutics Limited, priority 2020, published 2023)
Structures can show the parent of a compound that is named as a salt. Where two headings read alike, the source gives them in different places.

Assays:
[1] = molecular target: human Adenosine A2a receptor (Homo sapiens (Human), UniProt P29274); assay: Adenosine receptor TR-FRET binding assay (A2a); conditions: inhibition of binding of 100 nM CA200645, CHO cell membranes
Description: (§1) Biological Example 1—Adenosine Receptor Time-Resolved Fluorescence Resonance Energy Transfer (TRFRET) Binding Assay
(§2) All FRET binding experiments were conducted at room temperature in white 384-well plates, in assay binding buffer containing 1×LabMed (Cisbio, France), 100 μg/mL saponin, 1% DMSO and 0.02% pluronic acid. Binding of the fluorescently labelled Adenosine receptor antagonist XAC (CA200645, FRET acceptor) to terbium-labelled A1, A2a, A2b and A3 adenosine receptors (FRET donors) was detected by time-resolved FRET due to the close proximity of the donor and acceptor in a binding event. To investigate the ability of unlabelled test compounds to bind to Adenosine A1, A2a, A2b and A3 receptors, dose response curves were constructed that determined the ability of a range of concentrations to inhibit the binding of 30 nM CA200645 to the A2b receptor and 100 nM CA200645 to the A1, A2a, and A3 receptor.
(§3) Serial dilution (1:3 dilutions) of test compounds in neat DMSO and transfer of a 400 nL sample of test compound into the assay plate was carried out using the Mosquito (TTP Labtech, UK). The compound samples were incubated for 2 hours at room temperature with a fixed concentration of CA200645 defined for each receptor (see above) and CHO cell membranes containing the human Adenosine A1 (0.5 μg/well), A2a (0.3 μg/well), A2b (1 μg/well) or A3 (1 μg/well) receptor in 40 μL of assay buffer. Total and non-specific binding of CA200645 was determined in the absence and presence of 10 μM XAC, respectively. Following 2 hours incubation, the level of CA200645 binding was detected on a Pherastar FSX (BMG Labtech, Germany) using standard TR-FRET settings. The terbium donor was excited with three laser flashes at a wavelength of 337 nm, and donor and acceptor emission was detected at 620 nm and 665 nm wavelengths, respectively. FRET ratios were obtained by multiplying the acceptor/donor ratio value by 10,000. Specific binding was determined by subtracting the non-specific binding FRET ratio from the total binding FRET ratio. Compound IC50 curves were analysed using GraphPad Prism 7.0 (GraphPad, USA) and Ki affinity values were determined from the obtained IC50 values using the method of Cheng and Prusoff.

[2] = molecular target: human Adenosine A2b receptor (Homo sapiens (Human), UniProt P29275); assay: Adenosine receptor TR-FRET binding assay (A2b)
Description: as §1, §2, §3

[3] = molecular target: human Adenosine A1 receptor (Homo sapiens (Human), UniProt P30542); assay: Adenosine receptor TR-FRET binding assay (A1); conditions: inhibition of binding of 100 nM CA200645, CHO cell membranes
Description: as §1, §2, §3

[4] = molecular target: human Adenosine A3 receptor (Homo sapiens (Human), UniProt P0DMS8); assay: Adenosine receptor TR-FRET binding assay (A3); conditions: inhibition of binding of 100 nM CA200645, CHO cell membranes
Description: as §1, §2, §3

[5] = TR-FRET, inhibition of binding of 30 nM CA200645, CHO cell membranes

Sequence of human Adenosine A2b receptor (P29275 whole entry): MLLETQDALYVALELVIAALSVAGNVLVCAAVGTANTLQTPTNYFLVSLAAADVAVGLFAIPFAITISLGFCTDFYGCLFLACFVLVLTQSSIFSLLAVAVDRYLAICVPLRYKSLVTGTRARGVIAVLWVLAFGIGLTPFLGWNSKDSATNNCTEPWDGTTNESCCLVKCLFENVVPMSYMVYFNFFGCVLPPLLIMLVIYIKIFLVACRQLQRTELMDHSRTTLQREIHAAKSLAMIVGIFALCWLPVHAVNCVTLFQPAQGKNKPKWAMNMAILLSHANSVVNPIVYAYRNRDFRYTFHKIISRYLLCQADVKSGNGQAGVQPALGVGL
Sequence of human Adenosine A1 receptor (P30542 whole entry): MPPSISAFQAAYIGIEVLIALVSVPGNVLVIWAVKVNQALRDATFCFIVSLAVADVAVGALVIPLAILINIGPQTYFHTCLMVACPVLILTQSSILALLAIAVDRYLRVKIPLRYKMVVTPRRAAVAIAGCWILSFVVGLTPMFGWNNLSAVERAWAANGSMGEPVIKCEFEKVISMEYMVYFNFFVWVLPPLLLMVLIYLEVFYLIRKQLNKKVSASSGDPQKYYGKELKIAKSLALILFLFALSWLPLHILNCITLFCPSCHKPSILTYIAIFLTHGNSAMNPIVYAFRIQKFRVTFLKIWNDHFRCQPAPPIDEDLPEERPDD
Sequence of human Adenosine A3 receptor (P0DMS8 whole entry): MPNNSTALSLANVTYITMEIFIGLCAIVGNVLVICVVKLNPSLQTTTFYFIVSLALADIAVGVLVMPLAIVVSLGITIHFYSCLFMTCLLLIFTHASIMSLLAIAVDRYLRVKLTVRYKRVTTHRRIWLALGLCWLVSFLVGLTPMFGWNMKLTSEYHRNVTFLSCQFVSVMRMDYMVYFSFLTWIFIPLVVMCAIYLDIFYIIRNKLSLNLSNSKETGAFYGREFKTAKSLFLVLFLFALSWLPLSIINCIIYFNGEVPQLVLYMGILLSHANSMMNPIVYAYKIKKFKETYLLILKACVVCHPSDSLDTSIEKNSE
Sequence of human Adenosine A2a receptor (P29274 whole entry): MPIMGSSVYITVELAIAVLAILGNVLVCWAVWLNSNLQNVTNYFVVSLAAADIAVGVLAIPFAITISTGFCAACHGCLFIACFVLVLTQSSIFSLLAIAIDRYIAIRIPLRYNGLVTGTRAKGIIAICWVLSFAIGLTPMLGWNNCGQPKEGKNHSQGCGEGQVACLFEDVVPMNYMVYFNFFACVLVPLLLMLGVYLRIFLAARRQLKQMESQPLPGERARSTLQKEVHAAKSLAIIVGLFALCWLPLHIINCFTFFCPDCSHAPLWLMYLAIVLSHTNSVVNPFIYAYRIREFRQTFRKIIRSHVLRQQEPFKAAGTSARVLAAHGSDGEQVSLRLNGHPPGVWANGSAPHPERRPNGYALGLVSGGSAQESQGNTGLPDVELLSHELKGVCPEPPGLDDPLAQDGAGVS

Cc1cc(-c2sc(NC(=O)N3CCC4(CCOC4)C3)nc2-c2cccc(C#N)c2)cc(C)n1 (centres unmarked) [Example 6.80, N-[4-(3-Cyanophenyl)-5-(2,6-dimethyl-4-pyridyl)thiazol-2-yl]-2-oxa-7-azaspiro[4.4]nonane-7-carboxamide]
Ki [1]: 0.8 nM
Ki [2, 5]: 2.4 nM
Ki [3]: 130 nM
Ki [4]: 450 nM

Cc1cc(-c2sc(NC(=O)N3C[C@@H]4CNC(=O)[C@@H]4C3)nc2-c2cccc(C#N)c2)cc(C)n1 [Example 6.52, (3aS,6aS)-N-[4-(3-Cyanophenyl)-5-(2,6-dimethyl-4-pyridyl)thiazol-2-yl]-3-oxo-1,2,3a,4,6,6a-hexahydropyrrolo[3,4-c]pyrrole-5-carboxamide]
Ki [1]: 4.3 nM
Ki [2, 5]: 8.6 nM
Ki [3]: 120 nM
Ki [4]: 238 nM

Cc1cc(-c2sc(NC(=O)N3CC4(CCOC(=O)N4)C3)nc2-c2cccc(C#N)c2)cc(C)n1 [Example 6.34, N-[4-(3-Cyanophenyl)-5-(2,6-dimethyl-4-pyridyl)thiazol-2-yl]-6-oxo-7-oxa-2,5-diazaspiro[3.5]nonane-2-carboxamide]
Ki [1]: 0.64 nM
Ki [2, 5]: 2.1 nM
Ki [3]: 26 nM
Ki [4]: 166 nM

Cc1cc(-c2sc(NC(=O)N3CCN(CCO)C(=O)C3)nc2-c2cccc(C#N)c2)cc(C)n1 [Example 4.31, N-[4-(3-Cyanophenyl)-5-(2,6-dimethyl-4-pyridyl)thiazol-2-yl]-4-(2-hydroxyethyl)-3-oxo-piperazine-1-carboxamide]
Ki [1]: 3.75 nM
Ki [2, 5]: 4.7 nM
Ki [3]: 210 nM
Ki [4]: 425 nM

Cc1cc(-c2sc(NC(=O)N3CCOCC3)nc2-c2cccc(C#N)c2)cc(Cl)n1 [Example 1, N-[5-(2-Chloro-6-methyl-4-pyridyl)-4-(3-cyanophenyl)thiazol-2-yl]morpholine-4-carboxamide]
Ki [1]: 0.42 nM
Ki [2, 5]: 1.1 nM
Ki [3]: 9 nM
Ki [4]: 305 nM

Cc1cc(-c2sc(NC(=O)N3C[C@@H]4OCCN(C)[C@H]4C3)nc2-c2cccc(C#N)c2)cc(C(F)F)n1 (racemic) [Example 6.109, rac-(4aS,7aS)-N-[4-(3-Cyanophenyl)-5-[2-(difluoromethyl)-6-methyl-4-pyridyl]thiazol-2-yl]-4-methyl-2,3,4a,5,7,7a-hexahydropyrrolo[3,4-b][1,4]oxazine-6-carboxamide]
Ki [1]: 10.8 nM
Ki [2]: 45.5 nM
Ki [3]: 471 nM
Ki [4]: 298 nM

CCN1CCN(C(=O)Nc2nc(-c3cccc(C#N)c3)c(-c3cc(C)nc(C)c3)s2)CC1 [Example 6.60, N-[4-(3-Cyanophenyl)-5-(2,6-dimethyl-4-pyridyl)thiazol-2-yl]-4-ethyl-piperazine-1-carboxamide]
Ki [1]: 3.09 nM
Ki [2, 5]: 6.2 nM
Ki [3]: 185 nM
Ki [4]: 455 nM

COc1cc(-c2sc(NC(=O)N3CCS(=N)(=O)CC3)nc2-c2cccc(C#N)c2)cc(C)n1 [Example 16, N-[4-(3-Cyanophenyl)-5-(2-methoxy-6-methyl-4-pyridyl)thiazol-2-yl]-1-imino-1-oxo-1,4-thiazinane-4-carboxamide]
Ki [1]: 2.71 nM
Ki [2, 5]: 2.4 nM
Ki [3]: 55 nM
Ki [4]: 334 nM

Cc1cc(-c2sc(NC(=O)N3CCN[C@H](C)C3)nc2-c2cccc(C#N)c2)cc(C(F)(F)F)n1 [Example 14, (3R)—N-[4-(3-Cyanophenyl)-5-[2-methyl-6-(trifluoromethyl)-4-pyridyl]thiazol-2-yl]-3-methyl-piperazine-1-carboxamide]
Ki [1]: 2.71 nM
Ki [2, 5]: 7.4 nM
Ki [3]: 45 nM
Ki [4]: 47 nM

Cc1cc(-c2sc(NC(=O)N3CCC(S(C)(=O)=O)CC3)nc2-c2cccc(C#N)c2)cc(C)n1 [Example 6.95, N-[4-(3-Cyanophenyl)-5-(2,6-dimethyl-4-pyridyl)thiazol-2-yl]-4-methylsulfonyl-piperidine-1-carboxamide]
Ki [1]: 1.05 nM
Ki [2, 5]: 4.6 nM
Ki [3]: 29 nM
Ki [4]: 560 nM

Cc1cc(-c2sc(NC(=O)N3C[C@H]4OCCN(C)[C@H]4C3)nc2-c2cccc(C#N)c2)cc(C(F)F)n1 (racemic) [Example 6.106, rac-(4aS,7aR)-N-[4-(3-Cyanophenyl)-5-[2-(difluoromethyl)-6-methyl-4-pyridyl]thiazol-2-yl]-4-methyl-2,3,4a,5,7,7a-hexahydropyrrolo[3,4-b][1,4]oxazine-6-carboxamide]
Ki [1]: 1.07 nM
Ki [2]: 4.5 nM
Ki [3]: 139 nM
Ki [4]: 195 nM

Cc1cc(-c2sc(NC(=O)N3CCOCC3C(C)(C)O)nc2-c2cccc(C#N)c2)cc(Cl)n1 (centres unmarked) [Example 3.4]
Ki [1]: 14.3 nM
Ki [2, 5]: 14.3 nM
Ki [4]: 2050 nM

Cc1cc(-c2sc(NC(=O)N3CC4(CNCCO4)C3)nc2-c2cccc(C#N)c2)cc(C)n1 [Example 13.1, N-[4-(3-Cyanophenyl)-5-(2,6-dimethyl-4-pyridyl)thiazol-2-yl]-5-oxa-2,8-diazaspiro[3.5]nonane-2-carboxamide]
Ki [1]: 0.64 nM
Ki [2, 5]: 1.9 nM
Ki [3]: 164 nM

Cc1cc(-c2sc(NC(=O)N3CCC4(CC3)CNCCO4)nc2-c2cccc(C#N)c2)cc(C)n1 [Example 7.3, N-[4-(3-Cyanophenyl)-5-(2,6-dimethyl-4-pyridyl)thiazol-2-yl]-1-oxa-4,9-diazaspiro[5.5]undecane-9-carboxamide]
Ki [1]: 1.02 nM
Ki [2, 5]: 5.7 nM
Ki [3]: 208 nM

Cc1cc(-c2sc(NC(=O)N3C[C@H](C)NC[C@@H]3C)nc2-c2cccc(C#N)c2)cc(C)n1 [Example 7.7, (2S,5S)—N-[4-(3-Cyanophenyl)-5-(2,6-dimethyl-4-pyridyl)thiazol-2-yl]-2,5-dimethyl-piperazine-1-carboxamide]
Ki [1]: 5.27 nM
Ki [2, 5]: 18.2 nM
Ki [3]: 49 nM

Cc1cc(-c2sc(NC(=O)N3CCN[C@H](C#N)C3)nc2-c2cccc(C#N)c2)cc(C)n1 [Example 13.14, (3S)-3-Cyano-N-[4-(3-cyanophenyl)-5-(2,6-dimethyl-4-pyridyl)thiazol-2-yl]piperazine-1-carboxamide]
Ki [1]: 0.18 nM
Ki [2, 5]: 4.2 nM
Ki [3]: 13 nM

Cc1cc(-c2sc(NC(=O)N3CC(N4CCCC4)C3)nc2-c2cccc(C#N)c2)cc(C)n1 [Example 6.114, N-[4-(3-Cyanophenyl)-5-(2,6-dimethyl-4-pyridyl)thiazol-2-yl]-3-pyrrolidin-1-yl-azetidine-1-carboxamide]
Ki [1]: 9.95 nM
Ki [2, 5]: 23 nM
Ki [3]: 240 nM

Cc1cc(-c2sc(NC(=O)N3C4CCC3CNC4)nc2-c2cccc(C#N)c2)cc(C)n1 [Example 7.4, N-[4-(3-Cyanophenyl)-5-(2,6-dimethyl-4-pyridyl)thiazol-2-yl]-3,8-diazabicyclo[3.2.1]octane-8-carboxamide]
Ki [1]: 2.73 nM
Ki [2, 5]: 13.5 nM
Ki [3]: 58 nM

Cc1cc(-c2sc(NC(=O)N3CCNCC3CC3CC3)nc2-c2cccc(C#N)c2)cc(C)n1 (centres unmarked) [Example 14.5, N-[4-(3-Cyanophenyl)-5-(2,6-dimethyl-4-pyridyl)thiazol-2-yl]-2-(cyclopropylmethyl)piperazine-1-carboxamide]
Ki [1]: 0.43 nM
Ki [2, 5]: 2.5 nM
Ki [3]: 61 nM

Cc1cc(-c2sc(NC(=O)N3CCC(CN4CCOCC4)CC3)nc2-c2cccc(C#N)c2)cc(C)n1 [Example 6.116, N-[4-(3-Cyanophenyl)-5-(2,6-dimethyl-4-pyridyl)thiazol-2-yl]-4-(morpholinomethyl)piperidine-1-carboxamide formate salt]
Ki [1]: 7.39 nM
Ki [2, 5]: 10 nM
Ki [3]: 281 nM

Cc1cc(-c2sc(NC(=O)N3C[C@H]4CC[C@@H]3CN4)nc2-c2cccc(C#N)c2)cc(C)n1 [Example 7.6, (1R,4R)—N-[4-(3-Cyanophenyl)-5-(2,6-dimethyl-4-pyridyl)thiazol-2-yl]-2,5-diazabicyclo[2.2.2]octane-2-carboxamide]
Ki [1]: 4.09 nM
Ki [2, 5]: 22.6 nM
Ki [3]: 162 nM

Cc1cc(-c2sc(NC(=O)N3CCNCC34CCC4)nc2-c2cccc(C#N)c2)cc(C)n1 [Example 7.10, N-[4-(3-Cyanophenyl)-5-(2,6-dimethyl-4-pyridyl)thiazol-2-yl]-5,8-diazaspiro[3.5]nonane-5-carboxamide]
Ki [1]: 29.4 nM
Ki [2, 5]: 90 nM
Ki [3]: 122 nM

Cc1cc(-c2sc(NC(=O)N3CC4(COC4)C3)nc2-c2cccc(C#N)c2)cc(C)[n+]1[O-] [Example 17, N-[4-(3-Cyanophenyl)-5-(2,6-dimethyl-1-oxido-pyridin-1-ium-4-yl)thiazol-2-yl]-2-oxa-6-azaspiro[3.3]heptane-6-carboxamide]
Ki [1]: 1.29 nM
Ki [2, 5]: 10 nM
Ki [3]: 12 nM
